Measured values reported in ChEMBL document CHEMBL3132769, “Fragment growing to retain or alter the selectivity of anchored kinase hinge-binding fragments” (Medchemcomm, 2014).

Tests used:
[1] = molecular target: T1, Aurora kinase A (Homo sapiens) (UniProt O14965); experiment: Inhibition of human full length AurA expressed in baculovirus assessed as substrate phosphorylation using fluorescence-labelled peptides as substrate at 0.06 uM after 90 mins by microfluidic peptide phosphorylation assay
T1 sequence (whole entry): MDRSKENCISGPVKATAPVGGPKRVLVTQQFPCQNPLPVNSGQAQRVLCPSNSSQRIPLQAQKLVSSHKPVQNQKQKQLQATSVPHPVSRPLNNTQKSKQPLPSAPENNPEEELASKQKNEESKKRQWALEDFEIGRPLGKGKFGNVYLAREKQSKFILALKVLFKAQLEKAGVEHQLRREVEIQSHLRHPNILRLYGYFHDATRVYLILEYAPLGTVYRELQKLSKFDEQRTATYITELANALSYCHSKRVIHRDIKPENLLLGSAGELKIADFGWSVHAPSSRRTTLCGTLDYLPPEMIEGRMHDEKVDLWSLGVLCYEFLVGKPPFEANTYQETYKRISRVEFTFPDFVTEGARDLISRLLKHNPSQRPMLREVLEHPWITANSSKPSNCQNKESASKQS

[2] = molecular target: Mitogen-activated protein kinase 3 (Homo sapiens) (UniProt P27361); experiment: Inhibition of human full length ERK1 expressed in Escherichia coli cell assessed as substrate phosphorylation using fluorescence-labelled peptides as substrate at 420 uM after 90 mins by microfluidic peptide phosphorylation assay
[3] = molecular target: Insulin receptor (Homo sapiens) (UniProt P06213); experiment: Inhibition of human INSR catalytic domain expressed in baculovirus assessed as substrate phosphorylation using fluorescence-labelled peptides as substrate at 95 uM after 90 mins by microfluidic peptide phosphorylation assay
[4] = molecular target: Fibroblast growth factor receptor 4 (Homo sapiens) (UniProt P22455); experiment: Inhibition of human FGFR4 catalytic domain expressed in baculovirus assessed as substrate phosphorylation using fluorescence-labelled peptides as substrate at 95 uM after 90 mins by microfluidic peptide phosphorylation assay
[5] = molecular target: T2, Mitogen-activated protein kinase 13 (Homo sapiens) (UniProt O15264); experiment: Inhibition of human full length p38 delta expressed in Escherichia coli cell assessed as substrate phosphorylation using fluorescence-labelled peptides as substrate at 95 uM after 90 mins by microfluidic peptide phosphorylation assay
T2 sequence (whole entry): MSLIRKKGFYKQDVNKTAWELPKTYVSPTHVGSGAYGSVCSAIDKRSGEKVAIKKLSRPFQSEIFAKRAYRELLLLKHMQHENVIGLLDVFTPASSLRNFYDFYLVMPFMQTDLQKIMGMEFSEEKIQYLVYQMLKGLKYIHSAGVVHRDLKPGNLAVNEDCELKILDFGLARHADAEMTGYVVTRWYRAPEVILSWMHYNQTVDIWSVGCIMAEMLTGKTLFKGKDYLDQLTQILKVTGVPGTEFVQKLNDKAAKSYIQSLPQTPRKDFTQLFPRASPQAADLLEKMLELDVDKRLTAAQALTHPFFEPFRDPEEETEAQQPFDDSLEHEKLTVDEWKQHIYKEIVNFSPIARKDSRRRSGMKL

[6] = molecular target: T3, Inhibitor of nuclear factor kappa-B kinase subunit beta (Homo sapiens) (UniProt O14920); experiment: Inhibition of human full length IKK beta expressed in baculovirus assessed as substrate phosphorylation using fluorescence-labelled peptides as substrate at 1000 uM after 90 mins by microfluidic peptide phosphorylation assay
T3 sequence (whole entry): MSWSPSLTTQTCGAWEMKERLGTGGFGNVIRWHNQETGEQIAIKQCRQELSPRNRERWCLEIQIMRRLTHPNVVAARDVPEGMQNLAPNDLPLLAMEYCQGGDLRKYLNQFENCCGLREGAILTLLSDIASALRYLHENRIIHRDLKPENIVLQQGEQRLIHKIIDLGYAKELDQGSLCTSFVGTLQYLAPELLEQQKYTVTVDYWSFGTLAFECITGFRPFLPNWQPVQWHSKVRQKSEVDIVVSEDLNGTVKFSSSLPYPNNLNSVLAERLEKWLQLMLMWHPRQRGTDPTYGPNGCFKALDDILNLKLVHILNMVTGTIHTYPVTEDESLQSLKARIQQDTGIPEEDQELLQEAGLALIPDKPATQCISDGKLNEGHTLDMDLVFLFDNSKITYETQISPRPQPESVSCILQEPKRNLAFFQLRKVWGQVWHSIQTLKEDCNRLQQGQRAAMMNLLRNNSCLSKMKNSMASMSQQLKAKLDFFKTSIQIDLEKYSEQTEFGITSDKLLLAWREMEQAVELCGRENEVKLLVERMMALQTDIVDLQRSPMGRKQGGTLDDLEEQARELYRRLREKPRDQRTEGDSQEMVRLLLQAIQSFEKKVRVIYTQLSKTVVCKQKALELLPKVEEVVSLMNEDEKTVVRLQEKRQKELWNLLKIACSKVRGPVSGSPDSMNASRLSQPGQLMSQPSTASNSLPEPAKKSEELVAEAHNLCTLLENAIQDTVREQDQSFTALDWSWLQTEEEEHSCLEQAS

[7] = molecular target: T4, Serine/threonine-protein kinase D1 (Homo sapiens) (UniProt Q15139); experiment: Inhibition of human full length PKD1 expressed in baculovirus assessed as substrate phosphorylation using fluorescence-labelled peptides as substrate at 2 uM after 90 mins by microfluidic peptide phosphorylation assay
T4 sequence (whole entry): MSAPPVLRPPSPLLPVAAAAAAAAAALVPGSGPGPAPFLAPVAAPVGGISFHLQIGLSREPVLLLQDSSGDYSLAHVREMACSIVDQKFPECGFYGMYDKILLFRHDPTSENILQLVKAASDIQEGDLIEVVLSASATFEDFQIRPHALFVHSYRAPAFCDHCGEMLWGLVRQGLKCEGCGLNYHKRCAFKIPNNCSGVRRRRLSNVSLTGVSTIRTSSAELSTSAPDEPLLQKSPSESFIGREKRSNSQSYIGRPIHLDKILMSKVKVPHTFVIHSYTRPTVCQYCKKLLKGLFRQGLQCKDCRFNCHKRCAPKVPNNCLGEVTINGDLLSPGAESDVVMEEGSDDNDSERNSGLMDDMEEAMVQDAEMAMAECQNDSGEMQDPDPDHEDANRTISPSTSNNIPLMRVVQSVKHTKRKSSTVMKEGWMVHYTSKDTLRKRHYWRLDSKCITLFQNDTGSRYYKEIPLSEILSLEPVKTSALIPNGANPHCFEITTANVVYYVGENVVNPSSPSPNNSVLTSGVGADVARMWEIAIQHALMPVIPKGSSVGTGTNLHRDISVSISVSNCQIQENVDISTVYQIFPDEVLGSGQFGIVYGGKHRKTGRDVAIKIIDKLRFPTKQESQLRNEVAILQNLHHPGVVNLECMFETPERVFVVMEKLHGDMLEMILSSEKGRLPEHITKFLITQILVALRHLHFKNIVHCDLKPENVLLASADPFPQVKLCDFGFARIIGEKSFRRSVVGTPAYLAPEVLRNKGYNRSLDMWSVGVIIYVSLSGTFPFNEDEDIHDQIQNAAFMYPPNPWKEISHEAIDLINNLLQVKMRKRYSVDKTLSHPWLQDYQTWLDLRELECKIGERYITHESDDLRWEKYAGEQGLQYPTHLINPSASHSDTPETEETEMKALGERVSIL

Chain of Fibroblast growth factor receptor 4 (Homo sapiens) (P22455 22-802 limits assumed): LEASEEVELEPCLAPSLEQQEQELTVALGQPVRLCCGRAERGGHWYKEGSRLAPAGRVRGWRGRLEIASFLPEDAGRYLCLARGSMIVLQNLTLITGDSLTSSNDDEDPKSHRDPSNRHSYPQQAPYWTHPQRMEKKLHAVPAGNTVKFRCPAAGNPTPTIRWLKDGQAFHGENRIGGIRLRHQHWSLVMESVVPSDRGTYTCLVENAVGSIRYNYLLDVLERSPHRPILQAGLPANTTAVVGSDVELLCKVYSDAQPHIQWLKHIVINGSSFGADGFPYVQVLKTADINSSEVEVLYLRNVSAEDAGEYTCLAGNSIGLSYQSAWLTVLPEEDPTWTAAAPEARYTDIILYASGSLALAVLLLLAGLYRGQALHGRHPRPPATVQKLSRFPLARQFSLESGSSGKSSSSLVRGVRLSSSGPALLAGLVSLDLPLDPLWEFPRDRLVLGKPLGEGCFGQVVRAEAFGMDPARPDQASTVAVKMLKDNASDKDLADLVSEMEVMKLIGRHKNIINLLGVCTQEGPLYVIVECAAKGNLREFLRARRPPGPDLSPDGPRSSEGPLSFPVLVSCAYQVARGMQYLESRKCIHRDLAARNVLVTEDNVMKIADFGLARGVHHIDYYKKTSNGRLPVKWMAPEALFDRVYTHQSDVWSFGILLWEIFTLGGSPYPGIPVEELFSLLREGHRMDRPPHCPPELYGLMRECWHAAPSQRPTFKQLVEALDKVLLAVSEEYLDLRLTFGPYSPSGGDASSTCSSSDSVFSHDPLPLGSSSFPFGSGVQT
Chain of Mitogen-activated protein kinase 3 (Homo sapiens) (P27361 whole entry, the tested form may be a part): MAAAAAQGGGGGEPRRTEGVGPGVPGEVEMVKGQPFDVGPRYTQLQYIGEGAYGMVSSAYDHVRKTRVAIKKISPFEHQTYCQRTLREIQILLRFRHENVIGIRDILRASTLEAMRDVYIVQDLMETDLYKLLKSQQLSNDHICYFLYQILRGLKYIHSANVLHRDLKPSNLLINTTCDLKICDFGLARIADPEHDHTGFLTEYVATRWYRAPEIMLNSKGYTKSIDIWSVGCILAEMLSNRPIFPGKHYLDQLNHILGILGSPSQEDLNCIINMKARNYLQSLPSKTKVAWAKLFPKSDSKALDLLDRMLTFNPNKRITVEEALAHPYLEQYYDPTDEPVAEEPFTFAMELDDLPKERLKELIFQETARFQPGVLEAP

NC1(Cc2ccc(Cl)cc2)CCN(c2ncnc3[nH]ccc23)CC1
inhibition [1]: 7.5%

c1nc(N2CCOCC2)c2nc[nH]c2n1
inhibition [2]: 78.5%

NCCc1ccc(-c2ncnc3[nH]cnc23)cc1
inhibition [3]: 23.5% | inhibition [4]: 10% | inhibition [5]: 13%

c1cnc2[nH]ccc2c1
inhibition [6]: 95.5%

NC1CCN(c2ncnc3[nH]ccc23)CC1
inhibition [7]: 26%
